Data taken from patent publication US20230406837A1, “SULFAMATE MODULATORS OF PIN1 ACTIVITY AND USES THEREOF” (Yeda Research and Development Co., Ltd., priority 2022, published 2023).
Entries after “also recorded” stand apart in the source; their conditions may differ.

What was measured:
[1] = molecular target: T1, Pin1 (Homo sapiens, UniProt Q13526); experiment: In-vitro Pin1 covalent labeling by intact protein LC/MS; type: binding; set-up: The catalytic domain of Pin1 (2 μM) in 20 mM Tris, 75 mM NaCl, pH 7.5 was incubated with 2 μM Sulfamate; made in house; conditions: 2 μM compound, 2 μM Pin1, pH 7.5, 1 h, 25° C.
Experimental: Pin1 was expressed and purified as previously reported^38. The catalytic domain of Pin1 (2 μM) in 20 mM Tris, 75 mM NaCl, pH 7.5 was incubated with 2 μM Sulfamate (4a-4g) for 1 h at 25° C.
The reaction mixtures, at room temperature for various times, were injected into the LC/MS. For data analysis, the raw spectra were deconvoluted using a 20000:40000 Da (For Pin1, 10000:30000) window and 1 Da resolution. The labeling percentage for a compound was determined as the labeling of a specific compound (alone or together with other compounds) divided by the overall detected protein species.
Initially, these compounds (4a-4g; 2 μM) were incubated with Pin1 (2 μM; […] Tris buffer; pH 7.5, 1 h; 25° C.) to check covalent labeling by intact protein MS (FIG. 11B,C; FIG. 10).
Target sequence in this assay (Q13526 52-163 limits assumed): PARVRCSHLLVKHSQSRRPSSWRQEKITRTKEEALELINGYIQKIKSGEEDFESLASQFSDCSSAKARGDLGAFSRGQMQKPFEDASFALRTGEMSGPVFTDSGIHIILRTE

[2] = DTNB thiol reactivity assay; type: physicochemical; conditions: 200 μM compound, pH 7.4, 37° C.
Experimental: The compound 5,5′-dithio-bis(2-nitrobenzoic acid) (DTNB; 50 μM) was incubated with 200 μM tris(2-carboxyethyl)phosphine (TCEP) in 20 mM sodium phosphate buffer pH 7.4 and 150 mM NaCl for 5 min at room temperature, to obtain TNB^−2. […] UV absorbance was acquired every 15 min for 7 h. The assay was performed in a 384-well plate using a Tecan Spark 10M plate reader. […] Compounds were measured in triplicate. The data were fitted to a second-order reaction equation such that the rate constant (K) is the slope of ln([A][B0]/[B][A0]), where [A0] and [B0] are the initial concentrations of the compound (200 μM) and TNB^−2 (100 μM), respectively, and [A] and [B] are the remaining concentrations as a function of time as deduced from spectrometric measurements. Linear regression using Prism was performed to fit the rate against the first 7 h of measurements.

[3] = system: Mino cells; experiment: In situ proteomic labeling with alkyne probes, in-gel fluorescence; type: cell-based; conditions: 2 h
From the text: FIGS. 5A-5C: α-sulfamate acetamide 1a-aj, and 2a-2c can show up to two orders of magnitude less reactivity towards GSH than chloroacetamide. FIG. 5A: Chemical structures of model α-sulfamate/sulfonate/sulfone acetamides. FIG. 5B: Half-life (t1/2) of the model compounds (1a-1j) assessed by GSH consumption assay via LC/MS (FIG. 4B). FIG. 5C: In situ proteomic labeling with alkyne probes (2a-2c). […] A band that is selectively detected only by compound 2a is indicated by *.
Sulfamate acetamides show attenuated and tunable proteomic reactivity. To assess proteomic selectivity in cells, two sulfamate acetamides (2a and 2b) and a chloroacetamide (2c) with an alkyne functionality have been synthesized (FIG. 3 and FIG. 4A). Mino cells were treated for two hours with either DMSO or 2a-c. Then, the cells were lysed, labeled the alkynes via copper-catalyzed “click chemistry” (CuAAC) with TAMRA-azide, and imaged the adducts via in-gel fluorescence (FIG. 4C). Similar to their reactivity pattern in the GSH reactivity assay, these compounds labeled various amounts of proteins under cellular conditions.

[4] = GSH consumption (reactivity) assay by LC/MS; conditions: for covalent bond formation with GSH: assay conditions or temperatures up to 37° C. for 24 h; for reactivity to GSH relative to chloroacetamide (1a): 5 mM GSH, 200 μM electrophile, pH 8, 14° C.
[5] = molecular target: T2, Pin1 Cys113 (Homo sapiens, UniProt Q13526); experiment: Competitive isoTOP-ABPP in PATU-8988T cells; type: cell-based; conditions: for peptides labeled with an H/L ratio >2: out of about 3,000 cysteines identified
T2 construct: endogenous in cells
Experimental: FIGS. 11A-11E: Sulfamate acetamides as potent and selective Pin1 inhibitors. FIG. 11A. Chemical structures of the sulfonate and sulfamate compounds (4a-4g). FIG. 11B. Deconvoluted LC/MS spectrum for Pin1 (2 μM) incubated with 4 g at pH 7.5, 25° C., 1 h. The adduct mass corresponds to a labeling event in which the sulfamate group was released. FIG. 11C. Percent of Pin1 labeling (2 μM) with the probes (4a-4g; 2 μM; y-axis) compared to their intrinsic thiol reactivity as assessed by their rate of reaction in a DTNB assay (x-axis). FIG. 11D. Cellular engagement of the Sulfamates. OCI-AML2 cells were treated with DMSO, Sulfopin or sulfamate compounds (4c, 4d, 4g) at 0.5 and 2.5 μM concentration for 4 hours. Lysates were then incubated with a Sulfopin desthiobiotin (DTB) probe (1 μM), pulled down using streptavidin beads before running a western blot against Pin1. FIG. 11E. IsoDTB ABPP experiment with sulfopin and sulfamate compound 4d. […] The labeled peptides were pull-down with streptavidin beads and analysed by LC/MS/MS (similar protocol to BTK, see FIG. 521; n=4). Proteins in the box have a heavy to light (H/L) ratio ≥2. Only peptides detected in three out of four repetitions are presented.

[6] = molecular target: T1, Pin1; experiment: Kinetics of Pin1 binding (KI and Kinact) by LC-MS; set-up: made in house; kinact: unit not given here; conditions: for Ki: read-out: K1 value (KI)
From the text: The reaction was monitored by LC-MS. FIGS. 17B and 17D. The rate constants as extrapolated from FIGS. 17A and 17C, respectively, as a function of the concentration of sulfopin and 4d.
Target sequence in this assay (Q13526 whole entry, the tested form may be a part): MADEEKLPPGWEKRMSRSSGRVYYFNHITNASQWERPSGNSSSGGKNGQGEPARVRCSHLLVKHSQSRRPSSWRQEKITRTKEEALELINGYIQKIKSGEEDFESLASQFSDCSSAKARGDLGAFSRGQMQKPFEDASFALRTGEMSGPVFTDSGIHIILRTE

[7] = Buffer stability assay (hydrolysis by LC/MS); type: physicochemical; conditions: for hydrolysis in PBS buffer (FIG. 13): 100 μM, pH 8, 37° C. for four days; for hydrolysis in PBS buffer: pH 8, 37° C., after 2 days
Experimental: FIG. 8: Buffer stability of model compounds. […] The percentage of hydrolysis was quantified using LC/MS at a wavelength of 220 nm.
FIG. 13: Sulfonate and sulfamate compounds. […] For compounds Sulfopin, 4a, and 4b, spectra at 220 nm were taken to show the peaks. […] “#” refers to hydrolysis product “*” refers to unidentified peak.
Reaction mixtures were kept at 37° C. with shaking.

[8] = Metabolic stability in liver microsomes; type: in vitro ADME; conditions: LC/MS/MS
Experimental: FIG. 14: Sulfamates compounds show high metabolic stability. Compounds (Sulfopin, 4d, 4e, and 4g) were incubated in liver microsomes and injected to LC/MS/MS at indicated time points. The peak intensities of the compounds were measured in UV spectra.

[9] = Pin1 0.5 μM, 100 mM Tris buffer pH 7.4, 14° C.

T2 sequence (Q13526 whole entry): as the sequence (Q13526 whole entry, the tested form may be a part) above

SMILES: CC(C)(C)CN(C(=O)COS(=O)(=O)NCc1ccccc1)C1CCS(=O)(=O)C1 (centres unmarked) [Compound 4c, 2-((1,1-dioxidotetrahydrothiophen-3-yl)(neopentyl)amino)-2-oxoethyl Benzylsulfamate]
- Pin1 labeling by intact protein MS [1]: 56%
- thiol reactivity relative to Sulfopin [2]: lower thiol reactivity than Sulfopin

SMILES: O=C(COS(=O)(=O)Nc1ccccc1)N(CC1CCCCC1)C1CCS(=O)(=O)C1 (centres unmarked) [Compound 4g, 2-((cyclohexylmethyl)(1,1-dioxidotetrahydrothiophen-3-yl)amino)-2-oxoethyl Phenylsulfamate]
- Pin1 labeling by intact protein MS [1]: > 95%
- thiol reactivity relative to Sulfopin [2]: slightly higher reactivity

SMILES: C#Cc1ccc(NC(=O)CCl)cc1 [Compound 2c, 2-chloro-N-(4-ethynylphenyl)acetamide]
- proteomic reactivity (proteins labeled) [3]: enriching more proteins

SMILES: CS(=O)(=O)CC(=O)NCc1ccccc1 [Compound 1i, N-benzyl-2-(methylsulfonyl)acetamide]
- covalent bond formation with GSH [4]: did not form a covalent bond with GSH

SMILES: CC(C)(C)CN(C(=O)COS(=O)(=O)Nc1ccccc1)C1CCS(=O)(=O)C1 (centres unmarked) [Compound 4d, 2-((1,1-dioxidotetrahydrothiophen-3-yl)(neopentyl)amino)-2-oxoethyl Phenylsulfamate]
- competition ratio (H/L) of Pin1 Cys113 [5]: highest competition ratio
- peptides labeled with an H/L ratio >2 [5]: six
- thiol reactivity relative to Sulfopin [2]: lower thiol reactivity than Sulfopin
- binding affinity to Pin1 relative to sulfopin ([6]; KI of 4d versus sulfopin): five-times better K1 value; also recorded: five-fold higher binding affinity
- kinact [6, 9]: 2.48
- Ki [6, 9]: 43.6 µM

SMILES: CC(C)(C)CN(C(=O)COS(C)(=O)=O)C1CCS(=O)(=O)C1 (centres unmarked) [Compound 4a, 2-((1,1-dioxidotetrahydrothiophen-3-yl)(neopentyl)amino)-2-oxoethyl Methanesulfonate]
- Pin1 labeling by intact protein MS [1]: 18%
- hydrolysis in PBS buffer (FIG. 13) [7]: 15%
- hydrolysis in PBS buffer [7]: 15%

SMILES: CNS(=O)(=O)OCC(=O)NCc1ccccc1 [Compound 1d, 2-(benzylamino)-2-oxoethyl Methylsulfamate]
- reactivity to GSH relative to chloroacetamide (1a) [4]: an order of magnitude less reactivity

SMILES: C#Cc1ccc(NC(=O)COS(=O)(=O)Nc2ccccc2)cc1 [Compound 2b, 2-((4-ethynylphenyl)amino)-2-oxoethyl Phenylsulfamate]
- proteomic reactivity (proteins labeled) [3]: low reactivity

SMILES: O=C(CS(=O)(=O)c1ccccc1)NCc1ccccc1 [Compound 1j, N-benzyl-2-(phenylsulfonyl)acetamide]
- covalent bond formation with GSH [4]: did not form a covalent bond with GSH

SMILES: C#Cc1ccc(NC(=O)COS(=O)(=O)NCc2ccccc2)cc1 [Compound 2a, 2-((4-ethynylphenyl)amino)-2-oxoethyl Benzylsulfamate]
- proteomic reactivity (proteins labeled) [3]: enriching more proteins; also recorded: labeled a distinct protein that was not labeled by the chloroacetamide

SMILES: O=C(COS(=O)(=O)NCc1ccccc1)NCc1ccccc1 [Compound 1e, 2-(benzylamino)-2-oxoethyl Benzylsulfamate]
- reactivity to GSH relative to chloroacetamide (1a) [4]: an order of magnitude less reactivity

SMILES: CC(C)(C)CN(C(=O)CCl)C1CCS(=O)(=O)C1 (centres unmarked) [Sulfopin, reference compound]
- Pin1 labeling by intact protein MS [1]: 59%
- hydrolysis in PBS buffer (FIG. 13) [7]: 30%
- hydrolysis in PBS buffer [7]: 30%
- competition ratio (H/L) of Pin1 Cys113 [5]: highest competition ratio; also recorded: more complete target engagement
- peptides labeled with an H/L ratio >2 [5]: six
- metabolic stability [8]: good metabolic stability
- Ki [6, 9]: 217 µM

SMILES: CNS(=O)(=O)OCC(=O)N(CC(C)(C)C)C1CCS(=O)(=O)C1 (centres unmarked) [Compound 4b, 2-((1,1-dioxidotetrahydrothiophen-3-yl)(neopentyl)amino)-2-oxoethyl Methylsulfamate]
- Pin1 labeling by intact protein MS [1]: 16%

SMILES: CC(C)(C)CN(C(=O)COS(=O)(=O)Nc1ccc(Br)cc1)C1CCS(=O)(=O)C1 (centres unmarked) [Compound 4e, 2-((1,1-dioxidotetrahydrothiophen-3-yl)(neopentyl)amino)-2-oxoethyl (4-bromophenyl)sulfamate]
- thiol reactivity relative to Sulfopin [2]: lower thiol reactivity than Sulfopin
